Assay [1] has as its system HepG2. Briefly: Induction of apoptosis in human HepG2 cells assessed as early apoptotic cells at 3 uM incubated for 48 hrs by AnnexinV-FITC and propidium iodide staining based flow cytometry analysis (reference value: 2.45%). In kind it is functional. On the technique in general: In flow cytometry, cells or beads pass a laser one at a time.
For assay [2], the system named is Hep 3B2. Briefly: Induction ROS generation in human Hep3B cells assessed as intracellular ROS level measured after 15 mins by H2DCF-DA probe based flow cytometry (reference value: 4.24 %). In kind it is functional. Particulars: 0.25 h.
Assay [3] concerns HepG2. Briefly: Induction of apoptosis in human HepG2 cells assessed as decrease in PARP level at 3 to 9 uM measured by western blot analysis. In kind it is functional, cell-based. The note with it: dose 3-9 µM. On the technique in general: Immunoblotting shows a protein as a band on a membrane.
Assay [4] has as its system HepG2. Briefly: Induction of apoptosis in human HepG2 cells assessed as increase in cleaved caspase-3 activity measured by western blot analysis. In kind it is functional, cell-based. The note with it: dose 3-9 µM.
The test system of assay [5] is HepG2. Briefly: Induction ROS generation in human HepG2 cells assessed as intracellular ROS level measured after 1 hrs by H2DCF-DA probe based flow cytometry (reference value: 5.05%). It is filed as functional.
Assay [6] has as its system HepG2. Briefly: Induction of apoptosis in human HepG2 cells assessed as nuclear fragmentation at 3 to 9 uM incubated for 48 hrs by Hoechst 33258 staining based fluorescence microscopy analysis. Particulars: dose 3-9 µM. In kind it is functional, cell-based.
For assay [7], the system named is HepG2. Briefly: Induction ROS generation in human HepG2 cells assessed as intracellular ROS level measured after 30 mins by H2DCF-DA probe based flow cytometry (reference value: 5.05%). It is filed as functional. Particulars: 0.5 h.
Assay [8] deals with HepG2. Briefly: Induction of apoptosis in human HepG2 cells assessed as increase in Bax level at 3 to 9 uM measured by western blot analysis. In kind it is functional, cell-based. Particulars: dose 3-9 µM.
Assay [9] concerns Hep 3B2. Briefly: Induction of apoptosis in human Hep3B cells assessed as late apoptotic cells at 3 uM incubated for 48 hrs by AnnexinV-FITC and propidium iodide staining based flow cytometry analysis (reference value: 3.32%). In kind it is functional.
The subject of assay [10] is Hep 3B2. Briefly: Induction of autophagy in human Hep3B cells at 9 uM by MDC staining based flow cytometry analysis (reference value: 3.52%). It is filed as functional.
The subject of assay [11] is Hep 3B2. Briefly: Induction of apoptosis in human Hep3B cells assessed as nuclear fragmentation at 3 to 9 uM incubated for 48 hrs by Hoechst 33258 staining based fluorescence microscopy analysis. Particulars: dose 3-9 µM. In kind it is functional, cell-based.
Assay [12] relates to HepG2. Briefly: Anti-hepatoma activity against human HepG2 cells assessed as cell growth inhibition by MTT assay. In kind it is functional, cell-based. On the technique in general: Tetrazolium assays rely on reduction of a dye to a coloured formazan, in cell work by metabolically active cells.

SMILES strings stand for the structures. Calls of active or inactive are those of the source. The calls are words filed in the database; no cut-off is given here.

The source of these data is ChEMBL document CHEMBL4765305, “Elephantopinolide A-P, germacrane-type sesquiterpene lactones from Elephantopus scaber induce apoptosis, autophagy and G2/M phase arrest in hepatocellular carcinoma cells” (Eur J Med Chem, 2020).

As a reminder, the IC50 is the concentration that inhibits the measured activity by half. Take `C=C(C)C(=O)O[C@H]1CC2=C[C@@H](C[C@@]3(C)O[C@H]3[C@H]3OC(=O)C(=C)[C@@H]31)OC2=O`: the Activity is 14.9% in the assay on HepG2 [1]; 19.5% with Hep 3B2 [2]; “Dose-dependent effect” in the assay on HepG2 [4]; 14.6% in the assay with HepG2 [5]; 28.9% in the assay on HepG2 [7]; 5.56% in the assay on Hep 3B2 [9]. Moreover, in the assay with Hep 3B2 [10], the Activity amounted to 69.6%. Besides, the outcome with HepG2 [3], in the assay with HepG2 [6], with HepG2 [8] and with Hep 3B2 [11] was Active. The IC50 with HepG2 [12] amounted to 2830 nM.
